Holding throughout (assay type): cell-based
Experiment [1] relates to A431 (epidermoid carcinoma). Put plainly: Antiproliferative activity (CCK-8 cell viability), A431. The following applies: Homo sapiens, 72 h, read-out: Antiproliferative activity in cancerous cells, A431 (inhibition of cell growth); for inhibition at 3.3 µM: A-431, Compound concentration: 3.3 μM; for inhibition at 10 µM: A-431, Compound concentration: 10 μM. In short, it runs like this:
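Cell viability of compound-treated A431 cells was measured with a Cell Counting Kit-8. Each well received 10 μL of CCK-8 after 72 h of compound exposure, followed by 4 h incubation at 37° C. and a 450 nm plate-reader measurement. Percent viability was calculated relative to DMSO controls across replicates.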

For experiment [2], the system named is B16F10 (malignant melanoma). Put plainly: Antiproliferative activity (CCK-8 cell viability), B16F10. The following applies: Mus musculus, 72 h, read-out: Antiproliferative activity in cancerous cells, B16F10 (inhibition of cell growth); for inhibition at 3.3 µM: B16-F10, Compound concentration: 3.3 μM; for inhibition at 10 µM: B16-F10, Compound concentration: 10 μM. In short, it runs like this:
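Attached B16F10 cells in 96-well plates were incubated with compound at 37° C for 72 h, followed by 10 μL CCK-8 reagent per well and a further 4 h incubation. A multi-well plate reader measured absorbance at 450 nm. Percent viability across replicates was calculated against DMSO vehicle-treated cells.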

The test system of experiment [3] is HepG2 (liver cancer). Put plainly: Antiproliferative activity (CCK-8 cell viability), HepG2. The following applies: Homo sapiens, 72 h; for inhibition at 3.3 µM: Compound concentration: 3.3 μM; for inhibition at 3.3 µM / inhibition at 10 µM: read-out: Antiproliferative activity in cancerous cells, HepG2 (inhibition of cell growth); for inhibition at 10 µM: Compound concentration: 10 μM; for inhibition at 30 µM: Compound concentration: 30 μM, read-out: Antiproliferative activity in cancerous cells, HepG2. An outline of the steps: (§1)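 Cells were seeded at 2,000-5,000/well (HeLa in MEM, HepG2 and SW480 in DMEM, A549 in F-12K, all with 10% FBS) and treated with compound at 3.3, 10 or 30 μM for 72 h at 37° C. CCK-8 was added for 4 h, absorbance was read at 450 nm, and viability was expressed relative to DMSO-treated wells.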

The subject of experiment [4] is HeLa (cervical cancer). Nature of the experiment: Antiproliferative activity (CCK-8 cell viability), HeLa. The following applies: Homo sapiens, 72 h; for inhibition at 3.3 µM: Compound concentration: 3.3 μM; for inhibition at 3.3 µM / inhibition at 10 µM: read-out: Antiproliferative activity in cancerous cells, HELA (inhibition of cell growth); for inhibition at 10 µM: Compound concentration: 10 μM; for inhibition at 30 µM: Compound concentration: 30 μM, read-out: Antiproliferative activity in cancerous cells, HELA. In short, it runs like this:
as §1

The test system of experiment [5] is MDA-MB-231 (breast cancer). Nature of the experiment: Antiproliferative activity (CCK-8 cell viability), MDA-MB-231. As to conditions: Homo sapiens, 72 h; for inhibition at 3.3 µM: Compound concentration: 3.3 μM; for inhibition at 3.3 µM / inhibition at 10 µM: read-out: Antiproliferative activity in cancerous cells, MDA-MB-231 (inhibition of cell growth); for inhibition at 10 µM: Compound concentration: 10 μM. In short, it runs like this:
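In this CCK-8 viability assay, MDA-MB-231 cells maintained in Dulbecco's modified Eagle's medium containing 10% fetal bovine serum were placed in 96-well plates (2,000-5,000 cells/well) and treated with compound for 72 h at 37° C. A 4 h incubation with 10 μL CCK-8 followed, plates were read at 450 nm, and viability was expressed against DMSO vehicle wells across replicates.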

Experiment [6] relates to SW480 (colon cancer). Nature of the experiment: Antiproliferative activity (CCK-8 cell viability), SW480. The following applies: Homo sapiens, 72 h; for inhibition at 3.3 µM: Compound concentration: 3.3 μM; for inhibition at 3.3 µM / inhibition at 10 µM: read-out: Antiproliferative activity in cancerous cells, SW480 (inhibition of cell growth); for inhibition at 10 µM: Compound concentration: 10 μM. In short, it runs like this: as §1

Experiment [7] has as its system alpha-smooth muscle actin (α-SMA). Nature of the experiment: Inhibition of TGF-β induced expression of alpha-smooth muscle actin (α-SMA) in CFSC cells (western blot). The following applies: compound at 10 μM, TGF-β (10 ng/mL), 24 hours, band intensity vs TGF-β only. In short, it runs like this: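 CFSC hepatic stellate cells in serum-free DMEM treated 24 h at 37 °C with compound at 10 μM plus TGF-β (10 ng/mL). α-SMA measured by Western blot with β-actin, ECL detection, densitometry. Percent inhibition is decrease in band intensity versus TGF-β-only cells.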
In general terms: In western blotting, separated proteins are transferred to a membrane and probed.

Experiment [8] deals with A549 (lung adenocarcinoma). Nature of the experiment: Antiproliferative activity (CCK-8 cell viability), A549. The following applies: Homo sapiens, 72 h; for inhibition at 3.3 µM: Compound concentration: 3.3 μM; for inhibition at 3.3 µM / inhibition at 10 µM: read-out: Antiproliferative activity in cancerous cells, A549 (inhibition of cell growth); for inhibition at 10 µM: Compound concentration: 10 μM. An outline of the steps:
as §1

The structures appear in SMILES notation.

As for `CC1=C(Cc2noc(=O)[nH]2)c2cc(F)ccc2/C1=C\c1ccc(Oc2ccc(F)cc2)cc1` [C26, (Z)-3-((5-Fluoro-1-(4-(4-fluorophenoxy)benzylidene)-2-methyl-1H-inden-3-yl)-methyl)-1,2,4-oxadiazol-5(4H)-one], the inhibition at 3.3 µM in experiment [1] was less than 30%; in experiment [2] it was less than 30%; in experiment [3], less than 30%; in experiment [4], less than 30%; in experiment [5], no less than 50%; in experiment [6], less than 30%. Further, the inhibition at 3.3 µM in experiment [8] is 30 to 50%. The inhibition at 10 µM in experiment [1], in experiment [2], in experiment [3], in experiment [4], in experiment [5] and in experiment [6] was no less than 50% in each case. Moreover, the results for the inhibition at 10 µM in experiment [7] and in experiment [8] were greater than 80% and no less than 50%, respectively.
As to `O=C(O)CC1=C(Cc2ccc(Oc3ccc(F)cc3)cc2)/C(=C/c2cccc(COc3ccccc3)c2)c2ccc(F)cc21` [A101, (Z)-2-(5-Fluoro-2-(4-(4-fluorophenoxy)benzyl)-1-(3-(phenoxymethyl)-benzylidene)-1H-inden-3-yl)acetic acid], the inhibition at 3.3 µM in experiment [1], in experiment [2], in experiment [3], in experiment [4], in experiment [5] and in experiment [6] was no less than 50% throughout. Besides, the inhibition at 3.3 µM in experiment [8] was no less than 50%. Also, the inhibition at 10 µM in experiment [1], in experiment [2], in experiment [3], in experiment [4], in experiment [5] and in experiment [6] was no less than 50% each time. Also, the figures for the inhibition at 10 µM in experiment [7] and in experiment [8] were greater than 80% and no less than 50%, respectively.
Consider `CC1=C(CCC(=O)O)c2ccccc2/C1=C\c1cccc(COc2ccccc2)c1` [B15, (Z)-3-(2-Methyl-1-(3-(phenoxymethyl)benzylidene)-1H-inden-3-yl)propanoic acid], for which the inhibition at 3.3 µM is no less than 50% in experiment [1]; no less than 50% in experiment [2]; 30 to 50% in experiment [3]; 30 to 50% in experiment [4]; less than 30% in experiment [5]; no less than 50% in experiment [6]. Besides, in experiment [8], the inhibition at 3.3 µM is 30 to 50%. Further, the inhibition at 10 µM in experiment [1], in experiment [2], in experiment [3], in experiment [4], in experiment [5] and in experiment [6] was no less than 50% throughout. Further, the values for the inhibition at 10 µM in experiment [7] and in experiment [8] were less than 30% and no less than 50%, respectively.
As for `CC1=C(CC(=O)O)c2c(F)cccc2/C1=C\c1cccc(COc2ccccc2)c1` [B13, (Z)-2-(4-Fluoro-2-methyl-1-(3-(phenoxymethyl)benzylidene)-1H-inden-3-yl)-acetic acid], the inhibition at 3.3 µM was less than 30% in experiment [1]; 30 to 50% in experiment [2]; less than 30% in experiment [3]; 30 to 50% in experiment [4]; no less than 50% in experiment [5]; less than 30% in experiment [6]. In addition, the inhibition at 3.3 µM in experiment [8] lay in the range of 30 to 50%. The inhibition at 10 µM is 30 to 50% in experiment [1]; no less than 50% in experiment [2]; 30 to 50% in experiment [3]; no less than 50% in experiment [4]; no less than 50% in experiment [5]; less than 30% in experiment [6]. The inhibition at 10 µM in experiment [7] was less than 30%; in experiment [8] it was 30 to 50%. For the same compound, the inhibition at 30 µM in experiment [3] is 30 to 50%; in experiment [6] (Compound concentration: 30 μM, read-out: Antiproliferative activity in cancerous cells, SW480) it was 30 to 50%.
For the compound `CC1=C(CC(=O)O)c2cc(F)ccc2/C1=C\c1ccc(COc2ccc(C(F)(F)F)cc2)cc1` [B2, (Z)-2-(5-Fluoro-2-methyl-1-(4-((4-(trifluoromethyl)phenoxy)methyl)-benzylidene)-1H-inden-3-yl)acetic acid], the inhibition at 3.3 µM in experiment [1] is 30 to 50%; in experiment [2] it was no less than 50%; in experiment [3] it was 30 to 50%; in experiment [4], less than 30%; in experiment [5] it was 30 to 50%; in experiment [6], no less than 50%. Moreover, the inhibition at 3.3 µM in experiment [8] is no less than 50%. The inhibition at 10 µM in experiment [1] was no less than 50%; in experiment [2], no less than 50%; in experiment [3], no less than 50%; in experiment [4] it was less than 30%; in experiment [5], no less than 50%; in experiment [6], no less than 50%. Also, the inhibition at 10 µM in experiment [7] was greater than 80%; in experiment [8] it was no less than 50%. In addition, the inhibition at 30 µM in experiment [4] was 30 to 50%.
As to `CCC1=C(CC(=O)O)c2cc(F)ccc2/C1=C\c1cccc(COc2ccccc2)c1` [A5, (Z)-2-(2-Ethyl-5-fluoro-1-(3-(phenoxymethyl)benzylidene)-1H-inden-3-yl)acetic acid], the inhibition at 3.3 µM in experiment [1] was less than 30%; in experiment [2], 30 to 50%; in experiment [3], 30 to 50%; in experiment [4], 30 to 50%; in experiment [5] it was no less than 50%; in experiment [6], less than 30%. In addition, in experiment [8], the inhibition at 3.3 µM is 30 to 50%. Also, the inhibition at 10 µM in experiment [1], in experiment [2], in experiment [3], in experiment [4], in experiment [5] and in experiment [6] was no less than 50% throughout. Further, the inhibition at 10 µM in experiment [7] was greater than 80%; in experiment [8] it was no less than 50%.
For `CC1=C(CC(=O)O)c2cc(C)ccc2/C1=C\c1ccc(COc2ccccc2)cc1` [B4, (Z)-2-(2,5-Dimethyl-1-(4-(phenoxymethyl)benzylidene)-1H-inden-3-yl)acetic acid], the inhibition at 3.3 µM in experiment [1] is no less than 50%; in experiment [2], no less than 50%; in experiment [3], 30 to 50%; in experiment [4] it was less than 30%; in experiment [5], 30 to 50%; in experiment [6], less than 30%. The inhibition at 3.3 µM in experiment [8] was 30 to 50%. Moreover, the inhibition at 10 µM is less than 30% in experiment [1]; no less than 50% in experiment [2]; less than 30% in experiment [3]; 30 to 50% in experiment [4]; 30 to 50% in experiment [5]; 30 to 50% in experiment [6]. Moreover, the values for the inhibition at 10 µM in experiment [7] and in experiment [8] were less than 30% and 30 to 50%, respectively. Besides, the inhibition at 30 µM is less than 30% in experiment [3]; 30 to 50% in experiment [4]; less than 30% in experiment [5] (Compound concentration: 30 μM, read-out: Antiproliferative activity in cancerous cells, MDA-MB-231); 30 to 50% in experiment [8] (Compound concentration: 30 μM, read-out: Antiproliferative activity in cancerous cells, A549).

Values taken from patent US20260184663A1, “INDENE COMPOUNDS, PHARMACEUTICAL COMPOSITIONS THEREOF, AND THEIR THERAPEUTIC APPLICATIONS” (NucMito Pharmaceuticals co. Ltd., priority 2022, published 2026).
